From patent US9650339B2, “Inhibitors of histone demethylases” (Gilead Sciences, Inc., priority 2013, dated 2017)

Experiments:
[1] = biological target: T1, KDM7 (PHF8) (Homo sapiens, UniProt Q9UPP1); assay: Histone lysine demethylase AlphaLISA assay, KDM7; format: biochemical; conditions: read-out: PHF8 HDME Inhibition IC50
T1 construct: KDM7 (PHF8); BRIC; 1-1322; Bac
Method in brief: (§1)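 Each enzyme was pre-incubated 10 min in buffer, then 10 min with compound in 3% DMSO solution. The reaction started with biotinylated histone H3 peptide substrate plus 25 μM L-ascorbate and 10 μM α-KG at room temperature. Detection used AlphaLISA acceptor beads, then streptavidin donor beads, in the dark.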

[2] = biological target: T2, KDM5B (Homo sapiens, UniProt Q9UGL1); assay: Histone lysine demethylase immunofluorescence assay, U2OS cells transfected with KDM5B; format: cell-based; conditions: U2OS cells transfected with pCMVHA KDM5B; mark detected H3K4me2; 20 hours
T2 construct: (a.a. 1-752); host or cells: U2OS
T2 sequence (Q9UGL1 1-752): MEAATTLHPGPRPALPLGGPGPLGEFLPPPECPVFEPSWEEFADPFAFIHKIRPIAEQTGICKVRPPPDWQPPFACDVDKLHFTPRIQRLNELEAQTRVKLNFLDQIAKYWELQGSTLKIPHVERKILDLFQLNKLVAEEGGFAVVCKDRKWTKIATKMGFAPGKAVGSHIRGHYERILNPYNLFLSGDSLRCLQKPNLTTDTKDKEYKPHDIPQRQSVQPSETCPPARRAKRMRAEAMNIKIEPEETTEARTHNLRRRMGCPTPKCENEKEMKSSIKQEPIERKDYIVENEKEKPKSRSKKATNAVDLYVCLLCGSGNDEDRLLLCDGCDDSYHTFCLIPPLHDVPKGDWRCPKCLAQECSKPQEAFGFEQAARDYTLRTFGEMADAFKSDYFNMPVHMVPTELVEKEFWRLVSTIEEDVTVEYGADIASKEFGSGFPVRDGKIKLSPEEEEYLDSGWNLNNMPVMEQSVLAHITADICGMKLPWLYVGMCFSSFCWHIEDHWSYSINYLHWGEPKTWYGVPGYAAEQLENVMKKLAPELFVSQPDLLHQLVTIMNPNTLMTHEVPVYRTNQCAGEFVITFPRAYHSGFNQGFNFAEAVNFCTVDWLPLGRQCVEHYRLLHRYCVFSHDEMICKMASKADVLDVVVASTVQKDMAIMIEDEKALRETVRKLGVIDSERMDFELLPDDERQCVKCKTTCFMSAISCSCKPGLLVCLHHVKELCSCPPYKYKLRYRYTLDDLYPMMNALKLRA
Method in brief: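 U2OS cells were transiently transfected with HA-tagged demethylase and reseeded after 6 h into compound-containing DMEM/10% FBS for 20 h. Cells were fixed in formaldehyde and immunostained for HA and the relevant histone methyl mark, then imaged. IC50 is based on mean mark staining in HA+ transfected cells.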

[3] = biological target: T3, KDM4B (JMJD2B) (Homo sapiens, UniProt O94953); assay: Histone lysine demethylase AlphaLISA assay, KDM4B; format: biochemical; conditions: read-out: KDM4B HDME Inhibition IC50
T3 construct: 2-500; purchased BPS; host or cells: Bac (baculovirus system)
T3 sequence (O94953 2-500): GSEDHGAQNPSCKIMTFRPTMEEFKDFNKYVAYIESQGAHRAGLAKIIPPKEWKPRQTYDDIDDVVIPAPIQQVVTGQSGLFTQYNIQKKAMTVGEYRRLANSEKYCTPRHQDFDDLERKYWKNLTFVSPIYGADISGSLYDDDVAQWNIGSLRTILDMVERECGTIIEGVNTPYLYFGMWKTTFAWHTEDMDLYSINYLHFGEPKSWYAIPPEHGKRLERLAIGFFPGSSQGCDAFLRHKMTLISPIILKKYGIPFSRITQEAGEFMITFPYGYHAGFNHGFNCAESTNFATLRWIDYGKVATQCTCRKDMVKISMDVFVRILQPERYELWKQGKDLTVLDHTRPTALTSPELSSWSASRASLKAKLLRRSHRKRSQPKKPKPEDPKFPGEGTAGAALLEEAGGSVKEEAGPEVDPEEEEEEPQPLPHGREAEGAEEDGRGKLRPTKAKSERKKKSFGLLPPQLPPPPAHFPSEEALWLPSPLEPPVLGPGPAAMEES
Method in brief: as §1

[4] = biological target: KDM6A (UTX) (Homo sapiens, UniProt O15550); assay: Histone lysine demethylase AlphaLISA assay, KDM6A; format: biochemical; conditions: read-out: KDM6A HDME Inhibition IC50
Chain of KDM6A (UTX) (O15550 919-1401): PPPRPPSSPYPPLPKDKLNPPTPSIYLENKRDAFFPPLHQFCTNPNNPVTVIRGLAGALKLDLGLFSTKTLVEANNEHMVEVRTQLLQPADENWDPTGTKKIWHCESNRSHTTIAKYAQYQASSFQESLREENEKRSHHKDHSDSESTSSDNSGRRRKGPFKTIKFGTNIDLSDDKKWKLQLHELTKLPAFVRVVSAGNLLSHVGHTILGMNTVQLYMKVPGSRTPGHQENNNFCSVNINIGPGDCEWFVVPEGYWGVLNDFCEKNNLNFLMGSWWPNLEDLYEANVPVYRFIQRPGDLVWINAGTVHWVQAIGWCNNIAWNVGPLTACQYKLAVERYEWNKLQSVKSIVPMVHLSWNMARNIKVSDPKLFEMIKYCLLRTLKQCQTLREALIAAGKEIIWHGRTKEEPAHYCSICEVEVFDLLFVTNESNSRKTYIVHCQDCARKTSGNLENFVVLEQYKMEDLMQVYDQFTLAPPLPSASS
Method in brief: as §1

T1 sequence (Q9UPP1 37-440 limits assumed): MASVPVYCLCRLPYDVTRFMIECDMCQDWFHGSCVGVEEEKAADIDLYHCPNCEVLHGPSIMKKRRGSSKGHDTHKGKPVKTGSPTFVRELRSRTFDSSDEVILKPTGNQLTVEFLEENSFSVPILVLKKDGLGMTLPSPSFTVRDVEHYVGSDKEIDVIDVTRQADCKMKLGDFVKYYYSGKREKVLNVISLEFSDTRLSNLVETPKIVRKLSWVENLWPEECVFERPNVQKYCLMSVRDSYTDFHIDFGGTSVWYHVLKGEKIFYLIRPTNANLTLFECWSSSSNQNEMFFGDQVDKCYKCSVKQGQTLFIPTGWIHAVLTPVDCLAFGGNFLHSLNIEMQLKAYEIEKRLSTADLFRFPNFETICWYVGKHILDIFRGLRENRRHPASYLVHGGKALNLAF

Structure (SMILES)	IC50 [1] [µM]	IC50 [2] [µM]	IC50 [3] [µM]	IC50 [4] [µM]
CN(C)CCCCNCc1cc(CN)ccn1 [Compound 2, [2-({[4-(dimethylamino)butyl]-amino}methyl)pyridin-4-yl]methanamine]	> 2.5	< 0.25	> 2.5	> 2.5
CN(C)CCNCc1ccnc(CNCCCN(C)Cc2ccccc2)c1 [Compound 18, benzyl[3-({[4-({[2-(dimethylamino)ethyl]-amino}methyl)pyridin-2-yl]methyl}-amino)propyl]-methylamine]	> 2.5	–	> 2.5	> 2.5
COC(=O)CNCc1cc(/C=N/C2CC2)ccn1 [Compound 59, methyl 2-[({4-[N-cyclopropyl-carboximidoyl]pyridin-2-yl}methyl)amino]-acetate]	0.25 to 2.5	> 2.5	< 0.25	> 2.5
CCN(CC)CCCCNCc1cc(C2NCCCN2C)ccn1 (stereo not drawn) [Compound 68, [4-(diethylamino)butyl]({[4-(1-methyl-1,3-diazinan-2-yl)pyridin-2-yl]methyl})amine]	–	< 0.25	–	> 2.5
O=Cc1ccnc(CNCCCCN(Cc2ccccc2)C2CC2)c1 [Compound 109, 2-[({4-[benzyl-(cyclopropyl)amino]-butyl}amino)methyl]-pyridine-4-carbaldehyde]	> 2.5	0.25 to 2.5	< 0.25	> 2.5
O=Cc1ccnc(CNCC(=O)NC2CCN(Cc3ccccc3)C2)c1 (stereo not drawn) [Compound 113, N-(1-benzylpyrrolidin-3-yl)-2-{[(4-formylpyridin-2-yl)methyl]amino}-acetamide]	> 2.5	> 2.5	< 0.25	> 2.5

Results, then the molecule that gave them:

IC50 [1] [µM]	IC50 [2] [µM]	IC50 [3] [µM]	IC50 [4] [µM]	Structure (SMILES)
> 2.5	> 2.5	> 2.5	> 2.5	COCCNCc1ccnc(CNCCCN(C)Cc2ccccc2)c1 [Compound 19, benzyl(3-{[(4-{[(2-methoxyethyl)amino]-methyl}pyridin-2-yl)methyl]amino}-propyl)methylamine]
< 0.25	0.25 to 2.5	< 0.25	–	COc1ccccc1CN1CCC(NC(=O)CNCc2cc(CNC3CC3)ccn2)CC1 [Compound 20, 2-[({4-[(cyclopropylamino)-methyl]pyridin-2-yl}methyl)amino]-N-{1-[(2-methoxyphenyl)methyl]-piperidin-4-yl}acetamide]
–	< 0.25	–	> 2.5	CCN(CCN(C)C)C(=O)CN(Cc1cc(CNC(=O)C(F)(F)F)ccn1)C(=O)C(F)(F)F [Compound 26, N-[(2-{[N-({[2-(dimethylamino)ethyl]-(ethyl)carbamoyl}-methyl)-2,2,2-trifluoroacetamido]-methyl}pyridin-4-yl)methyl]-2,2,2-trifIuoroacetamide]
